Test results: article PMC6522524 (Nature Communications, 2019)
Values joined by “and” are separate entries in the source; they are usually repeats but may differ in a detail not shown here. Equal values may be shown once. Read-outs that look alike come from different tables or passages of the source.

Columns and labels:
[1] = system: HBV (ayw subtype, genotype D) replicon in HepG2.2.15 cells; test: microbe, parasite or virus in culture; format: cell-based, Hepatitis B virus; settings: Hepatitis B virus
[2] = system: HBV pgRNA/precore RNA in HepG2.2.15 cells; format: cell-based, Hepatitis B virus
Procedure: Fig. 1 Effect of FDA-approved compounds on HBV replication. a Schematic depiction of the primary screening analysis. HepG2.2.15 cells, which were stably transfected with HBV replicons, were treated with 978 FDA-approved drugs (1 μM) for 3 days. Entecavir (ETV) (1 μM) served as positive control. […] Quantitative RT-PCR was performed after 6 days of incubation. d Effect of the 19 candidates on intracellular HBV capsid assembly. Huh-7 cells were transfected with pCDNA3-Core and exposed after 12 h to the 19 candidates (1 μM) for 36 h. The cells were lysed and assembled HBV core particles were isolated by sucrose step gradient ultracentrifugation, resolved on 1% agarose gels, and subjected to immunoblot analysis with anti-HBV core antibody.
Quantitative RT-PCR with primers that detect three HBV regions (R1, R2, and R3, Supplementary Table 1) was used to measure HBV transcription. This RT-PCR detects pgRNA and precore RNA (3.5 kB), two HBV surface-encoding RNAs (2.5 kB and 2.1 kB), and HBx-encoding RNA (0.7 kB)[55]. PCR conditions were 95 °C for 10 min initially, then 50 cycles of 95 °C for 30 s, 60 °C for 60 s and 72 °C for 30 s, and finally 1 cycle of 95 °C for 60 s, 55 °C for 30 s and 95 °C for 30 s.
a Schematic depiction of the R1, R2, and R3 regions of the HBV genome that were targeted by
quantitative RT-PCR to quantitate the transcription of pgRNA, two HBV surface RNAs, and HBx RNA.
pGL3/HBV pgRNA promoter or pGL3/HBV sRNA promoter. The data shown in (b – d) represent two

[3] = biological target: T1, Cp149 (truncated HBV core protein) (Hepatitis B virus genotype D subtype ayw, UniProt P03146); test: biochemical
T1 construct: Cp149 (amino acids 1–149) is a truncated form of the HBV core protein; made in house; host or cells: Escherichia coli

[4] = system: HepG2 cells transfected with pHBV1.2×; settings: 0.1–10 μM, 6 days
[5] = in vitro; settings: human, Cell viability(%)
[6] = system: patients; settings: cited from earlier work
[7] = system: HBV replicative plasmid pAAV-HBV1.2× in C57BL/6 mice; test: Hydrodynamic injection mouse model (pAAV-HBV1.2×, C57BL/6 mice); format: in vivo
[8] = system: HBV (pHBV1.2× adr) in transfected HepG2 cells; test: microbe, parasite or virus in culture; format: cell-based, Hepatitis B virus; settings: Hepatitis B virus, HepG2, 144 h; HBV1.2× adr transfected cells, 6 days; read-out: IC50, HBV DNA secretion
[9] = system: intracellular HBV DNA in HepG2.2.15 and HBV 1.2X adr transfected HepG2 cells; test: Southern blot analysis of intracellular HBV DNA; format: cell-based, Hepatitis B virus; settings: Fig. 4c
Text: HBV DNA was separated on a 1% agarose gel, blotted onto a nylon membrane (Hybond N + , RPN203B, GE Healthcare), and hybridized with a biotin-labeled full length HBV fragment prepared with the BioPrime™ DNA labeling system (18094011, ThermoFisher).

[10] = in vitro; format: cell-based, human; settings: human, Cell viability(%)
Procedure: (§1) Supplementary Fig. 11. Effect of FBS serum iron level on Huh-7, HepG2, and HepG2.2.15 cell
(§2) a Cells were maintained in medium supplemented with 2% FBS or 10% FBS for 1 day and treated with
(§3) After 6 days, cytotoxicity was measured. b Cells were treated with
(§4) the ± SD. *p < 0.05 by unpaired two-tailed Student’s t-test.

[11] = in vitro; format: cell-based, human; settings: human, Cell viability(%); remark: listed apart in the source
Procedure: as §1, §2, §3, §4

[12] = system: HBV cccDNA in HepG2-NTCP cells; test: In vitro HBV infection model, HepG2-NTCP cells: intracellular cccDNA
Procedure: HepG2 and Huh-7 cells permanently expressing NTCP were generated by infecting them with an NTCP-encoding recombinant retrovirus and isolating GFP-expressing cells.
The isolated intracellular HBV DNA was subjected to PCR with an HBV DNA primer and probe set (Supplementary Table 1). cccDNA was isolated by the Hirt extraction method[54]. Briefly, the cells were lysed in SDS lysis buffer (50 mM Tris-HCl, pH 8.0, 10 mM EDTA, 150 mM NaCl, 1% SDS), and the lysates were mixed with KCl to a final concentration of 0.5 M. After incubation at 4 °C for 30 min, each lysate was centrifuged and the supernatant was extracted three times with phenol and once with chloroform. The DNA was then recovered by ethanol precipitation, and treated with T5 nuclease (10 U per μg for 0.5 h, M0363, New England Biolabs), and the enzyme was subsequently heat-denatured at 70 °C. The isolated cccDNA was subjected to PCR with a cccDNA primer and probe set (Supplementary Table 1).
HepG2-NTCP and Huh-7-NTCP cells were cultured in 12-well plates with the indicated compound(s) for 4 h, after which the cells were infected with HBV particles (10^7 viral genome equivalent per mL, genotype D) and treated with the indicated compound(s) for another 16 h. […]
Quantitative PCR with an HBV DNA primer and probe set was used to measure intracellular
cccDNA. The data are expressed as means ± SDs. […]

[13] = system: HBV (genotype D) in PXB mice; settings: mouse, in vivo
[14] = HepG2.2.15, 144 h, read-out: Relative secreted HBV DNA level (Folds), AVERAGE
[15] = HepG2.2.15, 144 h, read-out: Relative secreted HBV DNA level (Folds), individual samples
[16] = 5 mg per kg oral daily, by day 5

T1 sequence (P03146 1-149): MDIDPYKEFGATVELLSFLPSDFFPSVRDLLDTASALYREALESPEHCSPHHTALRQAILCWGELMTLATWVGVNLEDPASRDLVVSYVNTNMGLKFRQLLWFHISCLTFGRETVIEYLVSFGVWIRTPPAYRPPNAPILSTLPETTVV

Cc1cc(C2CCCCC2)n(O)c(=O)c1 [Ciclopirox, 6-cyclohexyl-1-hydroxy-4-methyl-2(1 H)-pyridone]
inhibition at 1 µM ([1]; HepG2.2.15, 72 h, read-out: % of inhibition (ETV =100%), initial screening (3days)): 142%
inhibition at 1 µM ([1]; HepG2.2.15, 144 h, read-out: % of inhibition (ETV =100%), confirmation (6days)): 88.6%
IC50 ([1]; HepG2.2.15, 144 h, read-out: IC50, HBV DNA secretion): 880 ± 70 nM
activity at 0.1 µM [1, 14]: 102%
activity at 0.2 µM [1, 14]: 81.1%
activity at 0.5 µM [1, 14]: 52.1%
activity at 1 µM [1, 14]: 51.6%
activity at 2 µM [1, 14]: 29.1%
activity at 5 µM [1, 14]: 23.5%
activity at 10 µM [1, 14]: 4.49%
activity at 0.1 µM [1, 15]: 102%
activity at 0.2 µM [1, 15]: 83%
activity at 0.5 µM [1, 15]: 48.1%
activity at 1 µM [1, 15]: 49.9%
activity at 2 µM [1, 15]: 29%
HBV transcripts levels [2]: no effect
IC50 [3]: 445 ± 17 nM
cytotoxicity [4]: no significant cytotoxicity
viability at 0.1 µM ([5]; AVERAGE): 98.8%
viability at 0.2 µM ([5]; AVERAGE): 102%
viability at 0.5 µM ([5]; AVERAGE): 97.7%
viability at 1 µM ([5]; AVERAGE): 98.7%
viability at 2 µM ([5]; AVERAGE): 99.1%
viability at 0.1 µM ([5]; individual samples): 98.8%
viability at 0.2 µM ([5]; individual samples): 102%
viability at 0.5 µM ([5]; individual samples): 97.6%
viability at 1 µM ([5]; individual samples): 98.6%
viability at 2 µM ([5]; individual samples): 99%
Dose-limiting gastrointestinal toxicities ([6]; 80 mg per m^2 four times daily, oral): Dose-limiting gastrointestinal toxicities were observed
anti-apoptotic gene expression in peripheral blood cells ([6]; once daily >10 mg per m^2, oral): suppressed anti-apoptotic gene expression in peripheral blood cells
HBV core protein levels in the liver [7, 16]: reduced HBV core protein levels in the liver
serum HBV DNA levels [7, 16]: significantly lowered serum HBV DNA levels
HBsAg, AVERAGE ([7]; mouse, in vivo): 278.443 ng/mL and 288.165 ng/mL and 304.224 ng/mL and 310.116 ng/mL
IC50 [8]: 750 ± 150 nM
intracellular HBV DNA levels (Southern blot) [9]: reduced intracellular HBV DNA levels in a dose-dependent manner
viability at 0.1 µM ([10]; AVERAGE): 99.9%
viability at 0.2 µM ([10]; AVERAGE): 99.8%
viability at 0.5 µM ([10]; AVERAGE): 99.7%
viability at 1 µM ([10]; AVERAGE): 99.7%
viability at 2 µM ([10]; AVERAGE): 98%
viability at 5 µM ([10]; AVERAGE): 96.5%
viability at 10 µM ([10]; AVERAGE): 94.6%
viability at 0.1 µM ([10]; individual samples): 98.5%
viability at 0.2 µM ([10]; individual samples): 98.3%
viability at 0.5 µM ([10]; individual samples): 98.2%
viability at 1 µM ([10]; individual samples): 96.6%
viability at 2 µM ([10]; individual samples): 95.4%
viability at 5 µM ([10]; individual samples): 91.5%
viability at 0.1 µM ([11]; AVERAGE): 100%
viability at 0.2 µM ([11]; AVERAGE): 100%
viability at 0.5 µM ([11]; AVERAGE): 99.6%
viability at 1 µM ([11]; AVERAGE): 99.1%
viability at 2 µM ([11]; AVERAGE): 97.4%
viability at 5 µM ([11]; AVERAGE): 95.2%
viability at 10 µM ([11]; AVERAGE): 93.6%
viability at 0.1 µM ([11]; individual samples): 99.9%
viability at 0.2 µM ([11]; individual samples): 99.6%
viability at 0.5 µM ([11]; individual samples): 99.4%
viability at 1 µM ([11]; individual samples): 98.9%
viability at 2 µM ([11]; individual samples): 97%
viability at 5 µM ([11]; individual samples): 93%
viability at 10 µM ([11]; individual samples): 93.5%
cccDNA levels [12]: dropped markedly
Serum HBV DNA, AVERAGE [13]: 6.24 log copies/mL
Serum HBV DNA, individual samples [13]: 6.248 log copies/mL and 5.238 log copies/mL and 7.238 log copies/mL
cccDNA, AVERAGE [13]: 0.2214 log copies/cell
cccDNA, individual samples [13]: 0.22 log copies/cell and 0.29 log copies/cell and 0.16 log copies/cell
HBV core protein levels in the liver ([13]; po): significantly reduced HBV core protein levels in the liver
HBeAg levels ([13]; po): significantly decreased HBeAg levels
Serum ALT levels ([13]; po): decreased
intrahepatic cccDNA ([13]; po): significantly reduced the amount of intrahepatic cccDNA
serum HBV DNA levels ([13]; po): lowered serum HBV DNA levels significantly
serum HBV DNA levels, combined with TDF ([13]; po): these effects were enhanced when it was combined with TDF
